Broadly, the melting point is the temperature of the solid-liquid transition.

Series [1] deals with P-IKKα levels in L363 (NIK translocated multiple myeloma) cells. In words: Effect of compounds on P-IKKα levels in L363 cells (Mesoscale sandwich immuno-assay). It counts as cell-based, human. To be noted: Homo sapiens, L-363, 2 h, 2 hr treatment, averaged values, read-out: Inhibition of pIKKα_L-363 (IC50 (nM)). A digest of the protocol: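 BAFF-stimulated (1 μg/ml stock) L363 cells preincubated 24 hr at 37° C, then treated 2 hr with compound (final 1% DMSO, 8-point 1:3 dilutions). Lysate P-IKKα measured by Mesoscale sandwich immunoassay; IC50 from sigmoidal fit of % inhibition versus log concentration.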

Series [2] deals with KMS12-BM (NIK WT) multiple myeloma cells. In words: Antiproliferative activity on KMS12-BM multiple myeloma cells (CellTiter-Glo). It counts as cell-based, human. Conditions: Homo sapiens, KMS-12-BM, 96 h, 96 hr treatment, averaged values, read-out: KMS-12 Proliferation inhibition (IC50 (nM)). A digest of the protocol: (§1)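 Cells plated at 15000 (JJN3) or 20000 (KMS12BM) per well and treated 96 h at 37° C, 5% CO2, final DMSO 0.3%, 9-point 1:3 dilutions. Viability by CellTiter-Glo luminescence; time-zero blank subtracted, growth expressed as percent of untreated control.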
A general note: ATP-based viability assays read luminescence as a measure of living cells.

Series [3] deals with JJN-3 (NIK translocated) multiple myeloma cells. As to the kind of experiment: Antiproliferative activity on JJN-3 multiple myeloma cells (CellTiter-Glo). To be noted: Homo sapiens, JJN-3, 96 h, JJN-3 (NIK translocated) cells, 96 hr treatment, averaged values, read-out: JJN-3 Proliferation inhibition (IC50 (nM)). The format is cell-based, human. A digest of the protocol: as §1

Series [4] has as its target recombinant human NF-kappaB-inducing Kinase (NIK/MAP3K14) (Homo sapiens, UniProt Q99558). As to the kind of experiment: Inhibition of auto-phosphorylation of recombinant human NIK/MAP3K14 activity (AlphaScreen). To be noted: 25 microM ATP, averaged over all measurements on all batches. The format is biochemical.

Sequence of recombinant human NF-kappaB-inducing Kinase (NIK/MAP3K14) (Q99558 whole entry): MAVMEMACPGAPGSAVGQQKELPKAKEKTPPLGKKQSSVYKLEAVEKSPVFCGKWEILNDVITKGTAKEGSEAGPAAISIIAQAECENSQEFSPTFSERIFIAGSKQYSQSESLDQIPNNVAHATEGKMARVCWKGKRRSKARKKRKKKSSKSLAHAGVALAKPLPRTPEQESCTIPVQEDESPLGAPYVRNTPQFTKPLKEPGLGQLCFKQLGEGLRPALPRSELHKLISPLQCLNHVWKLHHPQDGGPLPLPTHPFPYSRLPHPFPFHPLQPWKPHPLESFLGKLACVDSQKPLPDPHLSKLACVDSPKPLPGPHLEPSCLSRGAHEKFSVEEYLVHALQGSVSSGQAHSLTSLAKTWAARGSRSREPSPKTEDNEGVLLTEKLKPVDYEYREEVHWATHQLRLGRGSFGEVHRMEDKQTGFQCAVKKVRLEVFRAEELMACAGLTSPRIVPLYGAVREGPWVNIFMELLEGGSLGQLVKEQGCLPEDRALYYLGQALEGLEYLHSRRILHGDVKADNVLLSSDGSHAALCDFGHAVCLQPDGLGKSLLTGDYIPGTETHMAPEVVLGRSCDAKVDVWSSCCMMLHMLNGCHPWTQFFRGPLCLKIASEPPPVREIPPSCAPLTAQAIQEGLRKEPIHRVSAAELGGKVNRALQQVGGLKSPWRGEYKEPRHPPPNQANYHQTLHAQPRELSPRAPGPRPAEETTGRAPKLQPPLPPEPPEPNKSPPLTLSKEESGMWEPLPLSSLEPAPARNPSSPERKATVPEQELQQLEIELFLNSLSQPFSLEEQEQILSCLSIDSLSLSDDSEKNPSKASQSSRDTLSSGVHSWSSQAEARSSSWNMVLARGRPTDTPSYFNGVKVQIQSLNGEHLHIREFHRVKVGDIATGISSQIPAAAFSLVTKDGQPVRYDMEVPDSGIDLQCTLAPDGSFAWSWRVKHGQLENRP

On to `Cc1cc(Nc2nccc(-c3cc(C#N)c4c(c3)[C@@](C)(CO)CN4)n2)c(=O)n(CCN2CC(C)OC(C)C2)c1` (some centres unmarked) [Compound 2i], for which the melting point came to 135 °C. Further, the IC50 in series [1] is 1.1 nM. In addition, the IC50 in series [2] amounted to 5500 nM. Also, in series [3], the IC50 stood at 479 nM. The IC50 in series [4] is 1.8 nM.

Values taken from patent publication US11001569B2, “6-membered heteroaromatic substituted cyanoindoline derivatives as NIK inhibitors” (Janssen Pharmaceutica NV, priority 2016, dated 2021).
